{
  "source": "patent US20240398764A1",
  "about": "“METHODS OF TREATING DISEASES ASSOCIATED WITH SENESCENT CELL ACCUMULATION” (University of Florida Research Foundation, Incorporated, priority 2021, published 2024)",
  "key": {"[1]": {"tested_on": "senescent cells induced by STZ/HFD in the liver", "assay": "Senescent cell clearance in livers of STZ/HFD mice (p16/p21 mRNA, SA-β-gal staining)", "type": "in vivo, C57BL6 mice", "details": "5 mg/kg twice a week IP", "protocol": "GAPDH was used as a loading control. FIG. 6B depicts the relative expression of p16 and p21 at mRNA levels in the livers of STZ/HFD mice treated with 753b or vehicle control. *p<0.05. FIGS. 6C to 6D show senescence-associated beta-galactosidase (SA-β-gal) stained livers of STZ/HFD mice treated with vehicle control (FIG. 6C) or 753b (FIG. 6D). Scale bar: […].\n(§1) Experimental design: C57BL6 mice were injected with Streptozotocin (STZ) at postnatal day 2 to induce diabetes and then fed with HFD from postnatal day 30 till the end of the experiments (FIG. 5). Half of the mice started receiving vehicle and the others receiving 753b (5 mg/kg) treatment on postnatal day 45 twice a week by IP injection till the end of the experiments. A group of the mice were euthanized at postnatal day 90 (or day 45 after the initiation of the treatment) for analysis of senescent cell accumulation and steatosis. Another group of the mice were euthanized at postnatal day 150 (or day 105 after the initiation of the treatment) for analysis of liver fibrosis and cancer.\n753b effectively clears senescent cells induced by STZ/HFD in the liver. The liver tissues were collected from mice at postnatal day 90 (p90 or 45 days after treatment) for the analyses. […] Data were means±SD of triplicate experiments."}, "[2]": {"tested_on": "human platelets", "assay": "Viability of human platelets", "type": "cell-based", "details": "48 hr incubation; vs ABT263", "source_text": "(§2) FIG. 2A depicts immunoblots showing degradation of Bcl-xl and Bcl-2 in non-senescent WI-38 fibroblast cells (Non-SnCs) treated with varying concentrations of 753b. 3-actin was used as a loading control. FIG. 2B depicts viability of Non-SnCs treated with varying concentrations of 753b or ABT263. FIG. 2C depicts immunoblots showing degradation of Bcl-xl and Bcl-2 in ionizing radiation-induced senescent WI-38 fibroblast cells (IR-SnCs) treated with varying concentrations of 753b. 3-actin was used as a loading control. FIG. 2D depicts viability of IR-SnCs treated with varying concentrations of 753b or ABT263. FIG. 2E depicts immunoblots showing degradation of Bcl-xl and Bcl-2 in human platelets treated with varying concentrations of 753b. FIG. 2F depicts viability of human platelets treated with varying concentrations of 753b or ABT263.\n(§3) The potency of 753b in degrading Bcl-xl/2 was evaluated by immunoblots after the cells or platelets were treated with different concentrations of 753b for 16 h ([…]). 753b is more cytotoxic to IR-SnCs but less toxic to Non-SnCs and platelets. The viability of Non-SnCs, IR-SnCs and platelets was measured 72 hr (Non-SnCs and IR-SnCs) and 48 hr (platelets) after they were incubated with increasing concentrations of 753b or ABT263 compared to cells/platelets with vehicle."}, "[3]": {"tested_on": "replicative senescent REC (Rep-SnC REC)", "assay": "Viability of Rep-SnC REC", "type": "cell-based", "details": "72 hr incubation; vs ABT263", "protocol": "(§4) FIGS. 3A to 3B depicts viability of non-SnC human umbilical vein endothelial cells (HUVEC) and IR-induced SnC HUVEC treated with varying concentrations of ABT263 (FIG. 3A) or 753b (FIG. 3B). FIGS. 3C to 3D depict viability of non-SnC renal epithelial cells (REC), IR-induced SnC REC, and replicative senescent REC treated with varying concentrations of ABT263 (FIG. 3C) or 753b (FIG. 3D).\n(§5) The viability of Non-SnC HUVEC, Non-SnC REC, IR-SnC HUVEC, IR-SnC REC, and Rep-SnC REC was measured 72 hr after they were incubated with increasing concentrations of 753b or ABT263 compared to cells/platelets with vehicle."}, "[4]": {"tested_on": "normal non-senescent WI-38 fibroblast cells (Non-SnCs)", "assay": "Viability of non-senescent WI-38 fibroblast cells", "type": "cell-based", "details": "72 hr incubation; vs ABT263", "source_text": "as §2, §3"}, "[5]": {"tested_on": "normal non-senescent HUVEC (Non-SnC HUVEC)", "assay": "Viability of Non-SnC HUVEC", "type": "cell-based, human", "details": "72 hr incubation; vs ABT263", "protocol": "as §4, §5"}, "[6]": {"assay": "Body conditions and insulin tolerance test in the STAM model", "type": "in vivo, C57BL6 mice", "details": "STZ/HFD mice; 5 mg/kg twice a week IP; postnatal day 150", "protocol": "FIG. 8A is an image showing body condition of STZ/HFD mice treated with vehicle control or 753b. FIG. 8B depicts blood glucose (mg/dL) levels versus time after intraperitoneal injection of insulin in STZ/HFD mice treated with vehicle control or 753b. Data were means±SD from 5 mice per group. *p<0.05.\nas §1\n753b administration improves body conditions and ameliorates the development of insulin resistance in the STAM model. All the analyses were done in mice at postnatal day 150 (p150 or 105 days after treatment)."}, "[7]": {"tested_on": "normal non-senescent REC (Non-SnC REC)", "assay": "Viability of Non-SnC REC", "type": "cell-based", "details": "72 hr incubation; vs ABT263", "protocol": "as §4, §5"}, "[8]": {"assay": "Myofibroblast cell activation and liver fibrosis in the STAM model", "type": "in vivo, C57BL6 mice", "details": "STZ/HFD mice, 5 mg/kg twice a week IP, postnatal day 150", "protocol": "FIG. 9A depicts relative change in aSMA, Procollagen-1, Tgf-β, Ctgf, and Pdgf-β genes in livers of STZ/HFD mice treated with vehicle control or 753b. Data were means±SD of triplicate experiments. *p<0.05. […] Scale bar: […]. […] Actin was used as a loading control. FIG. 9D depicts hydroxyproline (μg/g) levels in the liver of STZ/HFD mice treated with vehicle control or 753b. *p<0.05.\nas §1\n753b administration inhibits myofibroblast cell activation and liver fibrosis in the STAM model. All the analyses were done in mice at postnatal day 150 (p150 or 105 days after treatment). […] Quantification was performed from 5 livers per group and was expressed as means±SD."}},
  "data": [
    {"smiles": "Cc1ncsc1-c1ccc([C@H](C)NC(=O)[C@@H]2C[C@@H](O)CN2C(=O)[C@@H](NC(=O)CCCCCCC(=O)N2CCN(C[C@]3(C)CCC(c4ccc(Cl)cc4)=C(CN4CCN(c5ccc(C(=O)NS(=O)(=O)c6ccc(N[C@H](CCN7CCOCC7)CSc7ccccc7)c(S(=O)(=O)C(F)(F)F)c6)cc5)CC4)C3)CC2)C(C)(C)C)cc1", "note": "[Compound 753b]", "values": [
      {"measurement": "Senescent cell burden in the liver (SA-β-gal staining)", "setting": "[1]; postnatal day 90", "result": "reduced senescent cell burden"},
      {"measurement": "p16 mRNA level in the liver", "setting": "[1]; postnatal day 90, Q-RT-PCR", "result": "inhibited upregulation"},
      {"measurement": "p21 mRNA level in the liver", "setting": "[1]; postnatal day 90, Q-RT-PCR", "result": "inhibited upregulation"},
      {"measurement": "Toxicity (viability) to human platelets compared with ABT263", "setting": "[2]", "result": "less toxic"},
      {"measurement": "Senolytic potency (viability) against Rep-SnC REC compared with ABT263", "setting": "[3]", "result": "more potent senolytic agent"},
      {"measurement": "Toxicity (viability) to Non-SnCs compared with ABT263", "setting": "[4]", "result": "less toxic"},
      {"measurement": "Toxicity (viability) to Non-SnC HUVEC compared with ABT263", "setting": "[5]", "result": "less toxic"},
      {"measurement": "Body conditions (dehydration and dampen hair)", "setting": "[6]", "result": "prevented the development of abnormal body conditions"},
      {"measurement": "Insulin resistance (intraperitoneal injected insulin tolerance test)", "setting": "[6]", "result": "prevented insulin resistance"},
      {"measurement": "Toxicity (viability) to Non-SnC REC compared with ABT263", "setting": "[7]", "result": "less toxic"},
      {"measurement": "Collagen level in livers (hepatic hydroxyproline assay)", "setting": "[8]", "result": "decreased levels of collagen"},
      {"measurement": "Liver fibrosis (aSMA immunofluorescent staining and sirius red staining)", "setting": "[8]", "result": "prevented liver fibrosis"},
      {"measurement": "aSMA and pro-collagen type I protein levels in livers (Western blotting)", "setting": "[8]", "result": "low levels of aSMA and pro-collagen type I proteins"},
      {"measurement": "Levels of fibrosis-related genes in livers (Q-RT-PCR)", "setting": "[8]; vs controls", "result": "lower levels of fibrosis-related genes"}
    ]}
  ]
}
